In the supplement of paper PMC10307832:

Assays:
Experiment in all cases: relative viability (nuclei count vs DMSO), 5 days (fraction); higher = more cells survive
[1] = compound: CC1=C(C(=O)N2C=CSC2=N1)CCN3CCC(=C(C4=CC=CC=C4)C5=CC=C(C=C5)F)CC3 + CC(=O)Nc1cccc(-n2c(=O)n(C3CC3)c(=O)c3c(Nc4ccc(I)cc4F)n(C)c(=O)c(C)c32)c1 [Trametinib] (partner 0.02 µM)
How it was run: (§1)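 Relative viability divides the nuclei count in treated wells by that in vehicle wells. Lung cancer cell lines were seeded in 1536-well plates, dosed by pin tool the next day, and fixed and stained after 5 days in one step with final 0.05% Triton X-100, 1% formaldehyde and 1 ug/ml Hoechst. Dosing was a single drug or a fixed anchor-drug dose plus five library-drug doses (not always all listed) in √10 steps, and values are medians of duplicate plates imaged at 4×.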

[2] = compound: CC1=C(C(=O)N2C=CSC2=N1)CCN3CCC(=C(C4=CC=CC=C4)C5=CC=C(C=C5)F)CC3 + COc1cccc2cc(-c3nc([C@H]4CC[C@H](C(=O)O)CC4)n4ncnc(N)c34)[nH]c12 [OSI-027] (partner 0.5 µM)
How it was run: as §1

[3] = compound: CC1=C(C(=O)N2C=CSC2=N1)CCN3CCC(=C(C4=CC=CC=C4)C5=CC=C(C=C5)F)CC3 + C[C@@H](Oc1cc(-c2cnn(C3CCNCC3)c2)cnc1N)c1c(Cl)ccc(F)c1Cl [Crizotinib] (partner 1 µM)
How it was run: as §1

[4] = compound: CC1=C(C(=O)N2C=CSC2=N1)CCN3CCC(=C(C4=CC=CC=C4)C5=CC=C(C=C5)F)CC3 + N=C(N)NC(=N)NCCc1ccccc1 [Phenformin] (partner 250 µM)
How it was run: as §1

Row | Cell Line | relative viability ([1]; first compound 0.08 µM) | relative viability ([1]; first compound 0.253 µM) | relative viability ([1]; first compound 0.8 µM) | relative viability ([1]; first compound 2.53 µM) | relative viability ([1]; first compound 8 µM) | relative viability ([2]; first compound 0.08 µM) | relative viability ([2]; first compound 0.253 µM) | relative viability ([2]; first compound 0.8 µM) | relative viability ([2]; first compound 2.53 µM) | relative viability ([2]; first compound 8 µM) | relative viability ([3]; first compound 0.08 µM) | relative viability ([3]; first compound 0.253 µM) | relative viability ([3]; first compound 0.8 µM) | relative viability ([3]; first compound 2.53 µM) | relative viability ([3]; first compound 8 µM) | relative viability ([4]; first compound 0.08 µM) | relative viability ([4]; first compound 0.253 µM) | relative viability ([4]; first compound 0.8 µM) | relative viability ([4]; first compound 2.53 µM) | relative viability ([4]; first compound 8 µM)
1 | 201T | 0.7 | 0.749 | 0.709 | 0.75 | 0.722 | 0.579 | 0.663 | 0.81 | 0.842 | 0.695 | 1.02 | 1.03 | 1.01 | 1.05 | 1.08 | 0.504 | 0.463 | 0.433 | 0.477 | 0.386
2 | A-427 | 0.762 | 0.686 | 0.712 | 0.818 | 0.681 | 0.421 | 0.364 | 0.421 | 0.49 | 0.432 | 0.749 | 0.95 | 0.942 | 0.963 | 0.646 | 0.291 | 0.287 | 0.283 | 0.301 | 0.266
3 | ABC-1 | – | – | – | – | – | 0.547 | 0.394 | 0.434 | 0.372 | 0.266 | 1.13 | 1.42 | 0.931 | 0.722 | 0.748 | 0.267 | 0.223 | 0.212 | 0.248 | 0.197
4 | BEN | 0.798 | 1.13 | 1.06 | 1.16 | 0.944 | 0.294 | 0.311 | 0.283 | 0.318 | 0.278 | 0.725 | 0.818 | 0.963 | 0.963 | 0.69 | 0.255 | 0.281 | 0.247 | 0.316 | 0.21
5 | CAL-12T | 0.262 | 0.281 | 0.267 | 0.338 | 0.3 | 0.826 | 0.718 | 0.603 | 0.586 | 0.428 | 0.694 | 0.829 | 0.657 | 0.741 | 0.46 | 0.55 | 0.593 | 0.544 | 0.605 | 0.346
6 | COR-L23 | 0.748 | 0.612 | 0.5 | 0.731 | 0.372 | 0.778 | 0.667 | 0.702 | 0.778 | 0.619 | 0.503 | 0.758 | 0.608 | 0.649 | 0.419 | 0.43 | 0.449 | 0.39 | 0.455 | 0.375
7 | COR-L 105 | 0.417 | 0.459 | 0.405 | 0.495 | 0.43 | 0.682 | 0.726 | 0.695 | 0.835 | 0.644 | 0.676 | 0.809 | 0.641 | 0.836 | 0.786 | 0.484 | 0.467 | 0.402 | 0.499 | 0.387
8 | Calu-6 | – | – | – | – | – | – | – | – | – | – | 0.713 | 0.864 | 0.631 | 0.782 | 0.576 | – | – | – | – | –
9 | ChaGo-K-1 | 0.821 | 0.926 | 0.961 | 0.963 | 0.673 | 0.595 | 0.636 | 0.533 | 0.584 | 0.489 | 1.17 | 1.32 | 1.29 | 0.706 | 1.03 | 0.561 | 0.462 | 0.53 | 0.539 | 0.431
10 | EBC-1 | – | – | – | – | – | – | – | – | – | – | 0.215 | – | 0.194 | 0.177 | 0.196 | – | – | – | – | –
11 | EKVX | 0.354 | 0.42 | 0.358 | 0.314 | 0.292 | 0.46 | 0.708 | 0.777 | 0.744 | 0.545 | 0.863 | 1.15 | 1.01 | 0.894 | 0.703 | 0.211 | 0.26 | 0.236 | 0.207 | 0.221
12 | EMC-BAC-2 | 1 | – | 0.931 | 0.926 | 0.858 | 0.35 | 0.353 | 0.372 | 0.37 | 0.291 | 0.725 | 0.801 | 0.696 | 0.766 | 0.676 | 0.536 | 0.495 | 0.497 | 0.526 | 0.414
13 | EPLC-272H | 0.379 | 0.295 | 0.305 | 0.281 | 0.255 | 0.26 | 0.282 | 0.316 | 0.262 | 0.235 | – | 1.12 | 0.934 | 1.07 | 0.738 | 0.333 | 0.328 | 0.286 | 0.286 | 0.391
14 | H3255 | 0.611 | 0.577 | 0.66 | 0.613 | 0.417 | 0.474 | 0.572 | 0.65 | 0.594 | 0.512 | 0.776 | 0.967 | 0.798 | 0.916 | 0.752 | 0.341 | 0.34 | 0.352 | 0.37 | 0.38
15 | HARA | 0.982 | 0.567 | 0.746 | 0.368 | 0.551 | 0.379 | 0.577 | 0.534 | 0.454 | 0.275 | 1 | 1.21 | 1.25 | 1.04 | 0.791 | 0.525 | 0.513 | 0.54 | 0.544 | 0.269
16 | HCC-15 | 0.352 | 0.432 | 0.342 | 0.38 | 0.349 | 0.593 | 0.628 | 0.707 | 0.782 | 0.507 | 0.804 | 0.88 | 0.933 | 0.795 | 0.576 | 0.432 | 0.453 | 0.434 | 0.423 | 0.334
17 | HCC-44 | 1.13 | 1.12 | 1.13 | 1.01 | 1.04 | 0.69 | 0.548 | – | 0.494 | 0.491 | 0.836 | 0.842 | 0.927 | 0.858 | 0.665 | 0.172 | 0.15 | 0.148 | 0.217 | 0.202
18 | HCC-78 | 0.818 | 0.837 | 0.941 | 0.727 | 0.616 | 0.352 | 0.349 | 0.406 | 0.356 | 0.326 | 0.283 | 0.335 | 0.34 | 0.319 | 0.326 | 0.689 | 0.76 | 0.695 | 0.691 | 0.531
